How the values were obtained:
[1] = system: senescent progeric fibroblasts (cell passage 17); test: mitochondrial ROS (MitoSOX) by flow cytometry; type: cell-based, human; settings: vs control, p<0.05, FIG. 19
Experimental: Progeric fibroblasts (Hutchinson-Gilford Progeria Syndrome Skin Fibroblasts, Coriell Cell Repositories, AG03198 B) were cultured in Dulbecco's Modified Eagle's Media (DMEM) supplemented with 10% fetal bovine serpm (FBS) and 100 unit/ml of penicillin, and 100 μg/ml of streptomycin (two antibiotics are purchased from Gibro-BRL and Grand Island, N.Y.) in a 5% CO2 incubator at 37° C. Subculturing was initiated when the cells were approximately 85% confluent in plates. Early subcultures were performed at a split ratio of 1:4, and later subcultures were performed at a split ratio of 1:2. When cell doubling time was 14 days, the cells were regarded as senescent progeric fibroblasts (cell passages 16 to 17).
(§1) The senescent progeric fibroblasts (cell passage 17) were seeded on each well of a 6-well plate in a concentration of 2,000 cells/well and cultured in the presence of 5 μM of Y-27632, 5 μM of FASUDIL, and 0.5 μM of SR3677 for 4 weeks in a 5% CO2 incubator at 37° C. The culture media were changed at every 4 days with new culture media supplemented with 5 μM of Y-27632, 5 μM of FASUDIL, and 0.5 μM of SR3677. A negative control group was prepared in the same manner, except that 0.05 (v/v) % of DMSO was used.
In addition, damage of mitochondria was identified by measuring reactive oxygen species (ROS) and mitochondrial membrane potentials which are well known in the art. ROS were measured using a 0.2 μM MitoSOX (Invitrogen, M3608) according to manufacturer's manuals. Light having a wavelength of 520 nm was irradiated to the cells using a FACSCaliber (Beckton Dickinson), and light emission was measured at 580 nm. The results were analyzed using Cell Quest 3.2 software (Beckton Dickinson). FIG. 19 is a graph displaying reactive oxygen species of progeric fibroblasts (cell passage 17) cultured in the presence of Rho-kinase inhibitors Y-27632 (5 μM), Fasudil (5 μM), and SR3677 (0.5 μM). […] In FIG. 19, * indicates statistically significant (p<0.05).

[2] = system: senescent myoblasts (passage 11); test: microscopic observation of cell number and shape; type: cell-based, Human; settings: 4 weeks, FIG. 13; for numbers of cells: vs DMSO
Experimental: Myoblast cell lines (Human Skeletal Muscle Myoblasts, Lonza CC-2580 LOT:0000387550) were cultured in SkBM™-2 Basal Media (Lonza CC-3246) including an SkGM™-2 SingleQuots™ Kit (Lonza CC-3244) on plates coated with Collagen Type I (Greiner Bio One, 658950) in a 5% CO2 incubator at 37° C. Subculture was initiated when the cells were approximately 85% confluent in plates. Early subcultures were performed at a split ratio of 1:4, and later subcultures were performed at a split ratio of 1:2. When cell doubling time was 14 days, the cells were regarded as senescent myoblasts (cell passages 10 to 12).
as §1, with “Senescent cells” for “The senescent progeric fibroblasts (cell passage 17)”, “plate coated with Collagen Type I (Greiner Bio One, 657950)” for “plate”, “cells/well. Senescent myoblasts (passage 11) were” for “cells/well and”
FIG. 13 illustrates microscopic images of cells cultured in the presence of 5 μM of Y-27632, 5 μM of FASUDIL, and 0.5 μM of SR3677. In “a” of FIG. 13, a portion was selected and marked by a rectangle with a dashed line, and the selected portion was enlarged in a1 for closer examination of the cultured cells. In a1 of FIG. 13, a portion was selected, marked by a rectangle with a dashed line, enlarged in a2 for much closer examination of the cultured cells (Scale bar 20 μm).

[3] = system: senescent fibroblasts (after 38 cell passages); test: DNA comet assay; type: cell-based, human; settings: 4 weeks, vs control, p<0.01, FIG. 12
Experimental: The degrees of restoration of DNA damage in senescent cells by the Rho-kinase inhibitors were identified by a DNA comet assay. This method is performed by detecting DNA fractions cleaved by ultraviolet (UV) irradiation. This method is based on gel electrophoresis. During gel electrophoresis, damaged DNA migrates farther than normal DNA forming a tail like a comet-tail. Then, a slide was stained with SYBR Green, and the length of a tail of a DNA fraction was measured using a fluorescence microscope to identify the degree of DNA damage.
FIG. 12 is a graph displaying degrees of DNA damage in fibroblasts (after 38 cell passages) cultured in the presence of Rho-kinase inhibitors Y-27632 (5 μM), Fasudil (5 μM), and SR3677 (0.5 μM) measured by a DNA comet assay indicating the degree of DNA damage. In FIG. 12, senescent cells (after 38 cell passages) were cultured in culture media supplemented with 5 μM of Y-27632, 5 μM of FASUDIL, and 0.5 μM of SR3677 for 4 weeks in a 5% CO2 incubator at 37° C. The culture media were changed at every 4 days with new culture media supplemented with 5 μM of Y-27632, 5 μM of FASUDIL, and 0.5 μM of SR3677. Also, negative control groups were prepared in the same manner as described above, except that one negative control group was prepared with no treatment and another was treated with 0.05 (v/v) % of DMSO. Cells having undergone 17 passages and having a cell doubling time of 4 to 5 days were used as young cells. […] Thus, it was confirmed that the degree of DNA damage increases in senescent cells. In the Comet assay, the Tail Moment is defined as multiplication of a length of the tail by a total DNA fraction contained in the tail. That is, the Tail Moment is a length of the tail migrated during gel electrophoresis. As the length of the tail decreases, the degree of DNA damage decreases. […] In FIG. 12, ** indicates statistically significant (p<0.01). In FIG. 12, the “Fibroblast p17” and “Fibroblast p38” refer to fibroblasts that were subcultured for 17 passages and fibroblasts subcultured for 38 passages, respectively.

O=S(=O)(c1cccc2cnccc12)N1CCCNCC1 [FASUDIL, 5-(1,4-diazepane-1-sulfonyl)isoquinoline]
ROS ([1]; 5 μM): significantly reduced
cell shape ([2]; 5 μM): spindle shape generally found in young cells
numbers of cells ([2]; 5 μM): greater than that of the control group
DNA damage (Tail Moment) ([3]; 5 μM): considerably restored

CN(C)CCOc1cc(-c2cn[nH]c2)ccc1NC(=O)C1COc2ccccc2O1 (stereo not drawn) [SR3677]
ROS ([1]; 0.5 μM): significantly reduced
cell shape ([2]; 0.5 μM): spindle shape generally found in young cells
numbers of cells ([2]; 0.5 μM): greater than that of the control group
DNA damage (Tail Moment) ([3]; 0.5 μM): considerably restored

C[C@@H](N)[C@H]1CC[C@H](C(=O)Nc2ccncc2)CC1 [Y-27632, (1R,4R)-4-((R)-1-aminoethyl)-N-(pyridin-4-yl)cyclohexanecarboxamide]
ROS ([1]; 5 μM): significantly reduced
cell shape ([2]; 5 μM): spindle shape generally found in young cells
numbers of cells ([2]; 5 μM): greater than that of the control group
DNA damage (Tail Moment) ([3]; 5 μM): considerably restored

From patent US9943525B2, “Composition for reducing cell senescence comprising Rho-kinase inhibitor and use thereof” (Samsung Electronics Co., Ltd., priority 2014, dated 2018)
